Source: ChEMBL document CHEMBL3784995, “Inhibitors of HIV-1 maturation: Development of structure-activity relationship for C-28 amides based on C-3 benzoic acid-modified triterpenoids” (Bioorg Med Chem Lett, 2016)

What was measured:
[1] = system: Human immunodeficiency virus 1; assay: Antiviral activity against wild type HIV1 NL4-3 habouring Gag protein V370A mutant infected in human MT2 cells after 4 to 5 days by dual-luciferase reporter gene assay; assay type: functional, organism-based; details: Human immunodeficiency virus 1, NL4-3, MT2
[2] = system: Human immunodeficiency virus 1; assay: Antiviral activity against wild type HIV1 NL4-3 habouring Gag protein delta V370 infected in human MT2 cells after 4 to 5 days by dual-luciferase reporter gene assay; assay type: functional, organism-based; details: Human immunodeficiency virus 1, NL4-3, MT2
[3] = Cytotoxicity against human MT2 cells; assay type: cell-based
[4] = system: Human immunodeficiency virus 1; assay: Antiviral activity against wild type HIV1 NL4-3 infected in human MT2 cells after 4 to 5 days by dual-luciferase reporter gene assay; assay type: functional, organism-based; details: Human immunodeficiency virus 1, NL4-3, MT2

Row | SMILES | EC50 [1] | EC50 [2] | CC50 [3] | EC50 [4]
1 | C=C(C)[C@@H]1CC[C@]2(C(=O)NCCN)CC[C@]3(C)[C@H](CC[C@@H]4[C@@]5(C)CC=C(c6ccc(C(=O)O)cc6)C(C)(C)[C@@H]5CC[C@]43C)[C@@H]12 | 7 nM | 702 nM | 4 µM | 3 nM
2 | C=C(C)[C@@H]1CC[C@]2(C(=O)NCC(=O)O)CC[C@]3(C)[C@H](CC[C@@H]4[C@@]5(C)CC=C(c6ccc(C(=O)O)cc6)C(C)(C)[C@@H]5CC[C@]43C)[C@@H]12 | > 2000 nM | > 2000 nM | > 50 µM | 106 nM
3 | C=C(C)[C@@H]1CC[C@]2(C(=O)N[C@@H](CN(C)C)C(=O)O)CC[C@]3(C)[C@H](CC[C@@H]4[C@@]5(C)CC=C(c6ccc(C(=O)O)cc6)C(C)(C)[C@@H]5CC[C@]43C)[C@@H]12 | 772 nM | > 160 nM | 25 µM | 46 nM
4 | C=C(C)[C@@H]1CC[C@]2(C(=O)NCCNCC(=O)O)CC[C@]3(C)[C@H](CC[C@@H]4[C@@]5(C)CC=C(c6ccc(C(=O)O)cc6)C(C)(C)[C@@H]5CC[C@]43C)[C@@H]12 | 15 nM | 61 nM | > 2 µM | 42 nM
5 | C=C(C)[C@@H]1CC[C@]2(C(=O)NCc3nccs3)CC[C@]3(C)[C@H](CC[C@@H]4[C@@]5(C)CC=C(c6ccc(C(=O)O)cc6)C(C)(C)[C@@H]5CC[C@]43C)[C@@H]12 | 28 nM | 690 nM | 6 µM | 15 nM
6 | C=C(C)[C@@H]1CC[C@]2(C(=O)NCCN(CC)CCC(=O)O)CC[C@]3(C)[C@H](CC[C@@H]4[C@@]5(C)CC=C(c6ccc(C(=O)O)cc6)C(C)(C)[C@@H]5CC[C@]43C)[C@@H]12 | 6 nM | 119 nM | > 17 µM | 2 nM
7 | C=C(C)[C@@H]1CC[C@]2(C(=O)NCCN(C)C(C)=O)CC[C@]3(C)[C@H](CC[C@@H]4[C@@]5(C)CC=C(c6ccc(C(=O)O)cc6)C(C)(C)[C@@H]5CC[C@]43C)[C@@H]12 | 2 nM | 224 nM | 9 µM | 3 nM
8 | C=C(C)[C@@H]1CC[C@]2(C(=O)NCCN3CCCCC3)CC[C@]3(C)[C@H](CC[C@@H]4[C@@]5(C)CC=C(c6ccc(C(=O)O)cc6)C(C)(C)[C@@H]5CC[C@]43C)[C@@H]12 | 10 nM | 359 nM | 10 µM | 7 nM
9 | C=C(C)[C@@H]1CC[C@]2(C(=O)NCCN(C)CC(=O)O)CC[C@]3(C)[C@H](CC[C@@H]4[C@@]5(C)CC=C(c6ccc(C(=O)O)cc6)C(C)(C)[C@@H]5CC[C@]43C)[C@@H]12 | 51 nM | 160 nM | 0.2 µM | 10 nM
10 | C=C(C)[C@@H]1CC[C@]2(C(=O)NCC(N)=O)CC[C@]3(C)[C@H](CC[C@@H]4[C@@]5(C)CC=C(c6ccc(C(=O)O)cc6)C(C)(C)[C@@H]5CC[C@]43C)[C@@H]12 | 32 nM | 2000 nM | 9 µM | 6 nM
11 | C=C(C)[C@@H]1CC[C@]2(C(=O)NCC(C)(C)N)CC[C@]3(C)[C@H](CC[C@@H]4[C@@]5(C)CC=C(c6ccc(C(=O)O)cc6)C(C)(C)[C@@H]5CC[C@]43C)[C@@H]12 | 21 nM | 800 nM | 20 µM | 7 nM
12 | C=C(C)[C@@H]1CC[C@]2(C(=O)NCCOC)CC[C@]3(C)[C@H](CC[C@@H]4[C@@]5(C)CC=C(c6ccc(C(=O)O)cc6)C(C)(C)[C@@H]5CC[C@]43C)[C@@H]12 | 152 nM | – | 14 µM | 17 nM
13 | C=C(C)[C@@H]1CC[C@]2(C(=O)NCCN(CC(=O)O)CC(=O)O)CC[C@]3(C)[C@H](CC[C@@H]4[C@@]5(C)CC=C(c6ccc(C(=O)O)cc6)C(C)(C)[C@@H]5CC[C@]43C)[C@@H]12 | > 2000 nM | > 2000 nM | > 20 µM | > 2000 nM
